Test results reported in patent publication US20230021483A1, “[…] […] METHOD AND CLASSIFICATION OF PHARMACEUTICAL COMPONENTS BY USING TRANSCRIPTOMES” (National Institutes of Biomedical Innovation, Health and …, priority 2016, published 2023).

Test system: preferentially upregulated genes in LV, SP, LN
Experiment: Z-score-based differential gene expression analysis (adjuvant group- or adjuvant-associated genes, 40 module mapping, TargetMine annotation)
Type: in vivo, C57BL/6 mice
Details: ID, LV
Summary of the method: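 Per-sample fold-change values converted to gene-wise z-scores within each organ's data set, then triplicate z-scores summed per adjuvant. Genes with summed score >3 taken as preferentially expressed; gene groups defined by combined per-adjuvant z-score thresholds (z>1 to z>3) specific to each organ.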

## Nc1nc2c(ncn2[C@@H]2O[C@@H]3COP(=O)(O)O[C@H]4[C@@H](O)[C@H](n5cnc6c(=O)[nH]c(N)nc65)O[C@@H]4COP(=O)(O)O[C@H]3[C@H]2O)c(=O)[nH]1 [cdiGMP, Cyclic diguanylate monophosphate]
Sample x1
  Shisa5 1437503_a_at (Group G1, Modules 20): 1.05
  Stat1 1450033_a_at (Group G1, Modules 20): 1.49
  Stat1 1450034_at (Group G1, Modules 20): 0.88
  Tdrd7 1426716_at (Group G1, Modules 20): 1.47
  Tor1aip2 1418115_s_at (Group G1, Modules 20): 1.81
  Tor1aip2 1418116_at (Group G1, Modules 20): 1.58
  Tor1aip2 1435526_at (Group G1, Modules 20): 0.94
  Trim12a 1437432_a_at (Group G1, Modules 20): 0.73
  Uba7 1426970_a_at (Group G1, Modules 20): 0.53
Sample x2
  Adar 1425405_a_at (Group G1, Modules 20): 1.67
  Adar 1434268_at (Group G1, Modules 20): 1.83
  Ddx58 1436562_at (Group G1, Modules 20): 0.88
  Ddx58 1456890_at (Group G1, Modules 20): 1.45
  Eif2ak2 1422005_at (Group G1, Modules 20): 1.38
  G3bp2 1421323_a_at (Group G1, Modules 20): 1.5
  Gm9706///Isg15 1431591_s_at (Group G1, Modules 20): 0.94
  H2-T10///H2-T22///H2-T9 1449875_s_at (Group G1, Modules 20): 1.04
  Ifih1 1426276_at (Group G1, Modules 20): 1.09
  Ifit1 1450783_at (Group G1, Modules 20): 2.28
  Ifit3 1449025_at (Group G1, Modules 20): 1.75
  Irf7 1417244_a_at (Group G1, Modules 20): 1.21
  Irgm1 1418825_at (Group G1, Modules 20): 1.29
  Mndal 1426906_at (Group G1, Modules 20): 2.45
  Pml 1448757_at (Group G1, Modules 20): 1.57
  Pml 1456103_at (Group G1, Modules 20): 1.3
  Rnf213 1455500_at (Group G1, Modules 20): 2.08
  Rsad2 1436058_at (Group G1, Modules 20): 2.41
  Shisa5 1423986_a_at (Group G1, Modules 20): 1.07
  Shisa5 1437503_a_at (Group G1, Modules 20): 1.12
  Stat1 1450033_a_at (Group G1, Modules 20): 1.44
  Stat1 1450034_at (Group G1, Modules 20): 1.02
  Tdrd7 1426716_at (Group G1, Modules 20): 1.15
  Tor1aip2 1418115_s_at (Group G1, Modules 20): 1.67
  Tor1aip2 1418116_at (Group G1, Modules 20): 1.33
  Tor1aip2 1435526_at (Group G1, Modules 20): 0.83
  Trim12a 1437432_a_at (Group G1, Modules 20): 0.83
  Uba7 1426970_a_at (Group G1, Modules 20): 1.46
Sample x3
  Adar 1425405_a_at (Group G1, Modules 20): 1.66
  Adar 1434268_at (Group G1, Modules 20): 2.95
  Ddx58 1436562_at (Group G1, Modules 20): 1.49
  Ddx58 1456890_at (Group G1, Modules 20): 2.07
  Eif2ak2 1422005_at (Group G1, Modules 20): 1.93
  G3bp2 1421323_a_at (Group G1, Modules 20): 2.34
  Gm9706///Isg15 1431591_s_at (Group G1, Modules 20): 2.02
  H2-T10///H2-T22///H2-T9 1449875_s_at (Group G1, Modules 20): 2.06
  Ifih1 1426276_at (Group G1, Modules 20): 1.65
  Ifit1 1450783_at (Group G1, Modules 20): 2.4
  Ifit3 1449025_at (Group G1, Modules 20): 2.34
  Irf7 1417244_a_at (Group G1, Modules 20): 1.92
  Irgm1 1418825_at (Group G1, Modules 20): 1.81
  Mndal 1426906_at (Group G1, Modules 20): 2.76
  Pml 1448757_at (Group G1, Modules 20): 2.16
  Pml 1456103_at (Group G1, Modules 20): 2.58
  Rnf213 1455500_at (Group G1, Modules 20): 3.16
  Rsad2 1436058_at (Group G1, Modules 20): 2.39
  Shisa5 1423986_a_at (Group G1, Modules 20): 1.57
  Shisa5 1437503_a_at (Group G1, Modules 20): 1.32
  Stat1 1450033_a_at (Group G1, Modules 20): 2.11
  Stat1 1450034_at (Group G1, Modules 20): 2.07
